These results are taken from ChEMBL document CHEMBL5303711, “ECBD screening data for assay EOS300108” (2023).

The source made the active and inactive calls. No rule for the calls is given here.

The series can be described thus: Cytotoxicity activity against human HepG2 cells assessed by CellTiter-Glo luminescent cell viability assay. The series is classed as toxicity, cell-based. More on the design: assay stage confirmatory assay, source tissue liver. To be noted: HepG2 cells, read-out: IC50 relative. (In general: In ATP-based viability assays light output follows the ATP content of the culture.)

Turning to `CCCCN(CC)CCCNC(=O)c1cc2c(=O)n(C)c3ccccc3c2n1C`, the CC50 was 11.8 µM (active).

In the case of `Cc1cccc(N2CCN(C(=O)C3CCCN(S(=O)(=O)c4ccc5c(c4)oc(=O)n5C)C3)CC2)c1C` (stereo unspecified), the CC50 was 6.1 µM (active).

Take `CCN(CC)C(=O)c1sc2[nH]c(-c3ccccn3)nc(=O)c2c1C`: the CC50 is 6 µM (active).

Take `COc1ccccc1N1CCN(S(=O)(=O)c2ccc3c4c(cccc24)C(=O)N3)CC1`: the CC50 was 10.8 µM (inactive).

In the case of `CN(C)S(=O)(=O)c1cccc(NC(=O)CSc2cccc3cccnc23)c1`, the CC50 was 3.5 µM (active).

For the molecule `O=C(NO)c1ccc(I)cc1`, the CC50 was 12.2 µM (active).

On to `COCCN1COc2c(cc(Cl)c3cccnc23)C1`, for which the CC50 is 7.5 µM (active).

For `Cc1cn(CC(=O)c2ccc(NC(=O)CC(C)C)cc2)cc(Br)c1=O`, the CC50 was 22.2 µM (inactive).

Consider `COc1cc(CNc2cc(C)nc(N)n2)ccc1C`, for which the CC50 is 6.7 µM (active).

Turning to `Cc1cc(C)c(C(N)=O)c(SCC(=O)N(CCC#N)c2ccc3c(c2)OCCO3)n1`, the CC50 is 4.3 µM (active).

On to `N[C@@H](CNC(=O)COc1ccc(Cl)c2ccccc12)C1CC1`, for which the CC50 was 24.9 µM (inactive).

Take `CC(C)n1ncnc1NC(=O)c1cccc(C(F)(F)F)c1O`: the CC50 was 5.6 µM (active).

Turning to `O=c1[nH]ncc(NCc2ccc(OC[C@H]3CCCO3)cc2)c1Cl`, the CC50 is 4.2 µM (inactive).

Regarding `O=C(Nc1cc(Cl)cc2cccnc12)c1ccoc1`, the CC50 is 0.3 µM (active).

As for `COC1(C(=O)N2CCO[C@H](c3ccccc3C)C2)CS(=O)(=O)C1`, the CC50 is 8.6 µM (active).

Turning to `O=S(=O)(c1c[nH]cn1)N1CCNC[C@H]1c1cccc(Cl)c1`, the CC50 was 50 µM (inactive).

For the molecule `O=C(Nc1nc2ccccc2[nH]1)c1ccc(-n2cccn2)cc1`, the CC50 was 48.2 µM (inactive).

In the case of `NCCn1cc(C(=O)N2CCN(Cc3ccc(Br)s3)CC2)nn1`, the CC50 is 7.4 µM (active).

With `O=S1(=O)CCCN1c1ccc(CNc2ncnc3ccccc23)cc1F`, the CC50 is 2.2 µM (active).

Turning to `Cc1cc(NC(=O)c2cscn2)ccc1NC(=O)c1ccco1`, the CC50 is 9.1 µM (active).

`CCN(C)C[C@H]1CCN(CCCC2CCCCC2)C1`: the CC50 was 4.5 µM (active).

As for `Cc1cc(SCC#N)n2ncc(-c3ccccc3)c2n1`, the CC50 was 0.9 µM (active).

Regarding `COc1cc(OC)c(OC)cc1CNC(=O)c1cccc2cccnc12`, the CC50 is 12 µM (inactive).

On to `C[C@H](O)CN1CCC(CNCc2ccc(Br)cc2)CC1`, for which the CC50 was 5.3 µM (active).

For `CCCCc1cc(NC(=O)[C@H]2CC(=O)N(Cc3ccccc3)C2)[nH]n1`, the CC50 was 1.8 µM (active).

On to `COc1ccc(C(=O)Nc2ccncc2)cc1S(=O)(=O)N(C)Cc1ccccc1`, for which the CC50 is 10.3 µM (active).

For `O=c1c2ccccc2sn1CN1CCN(c2ccc(C(F)(F)F)cn2)CC1`, the CC50 was 8.6 µM (active).

For the molecule `COc1ccccc1OCC(=O)Nc1cccc2ncccc12`, the CC50 is 9.3 µM (active).

As to `CCc1ccc(-c2cc(C(=O)N3C[C@H]4CC[C@@H]3CN(C)C4)[nH]n2)cc1`, the CC50 is 13.9 µM (inactive).

Consider `COc1cc(F)cc2sc(NC(=O)c3cc(N4CCOCC4)ccn3)nc12`, for which the CC50 is 48.8 µM (inactive).

`CCN(c1ccc(C(=O)Nc2ccccc2O)cc1)C(C)C`: the CC50 is 11.9 µM (active).

For `COc1c(C)ncnc1NCc1cccc(C(F)(F)F)c1`, the CC50 was 2.9 µM (active).

As for `CC1(C)CCCN(c2ccnc(N[C@H]3CCCOCC3)n2)C1`, the CC50 is 8 µM (active).

Regarding `Cn1cncc1C(=O)N1CCCN(Cc2ccccc2)c2ccccc21`, the CC50 is 11.5 µM (inactive).

Regarding `Nc1ccnc2ccc(Oc3ccccc3)cc12`, the CC50 is 11.2 µM (active).

Consider `Cn1c(NC(=O)c2cccc3cc[nH]c23)nc2ccccc21`, for which the CC50 is 2.3 µM (active).

On to `CCN(c1ccccc1C)S(=O)(=O)c1cn(C)nn1`, for which the CC50 was 19.9 µM (inactive).

Regarding `Fc1ccc2[nH]c(CCNc3ncc(Br)cn3)nc2c1`, the CC50 is 5.1 µM (active).

With `O=C1c2ccccc2C(=O)N1Cn1ncc(Cl)c(Cl)c1=O`, the CC50 was 11.5 µM (active).

With `CNc1snc(C)c1C(=O)N[C@@H](C)c1ccc2c(c1)OCCCO2`, the CC50 is 4.2 µM (active).

Turning to `COc1ccc(C)cc1CN(C)C(=O)CCN1C(=O)COc2ccccc21`, the CC50 was 5.1 µM (inactive).

As for `O=C(c1cccc2cnccc12)N1CCc2c(nc(-c3ccccc3)[nH]c2=O)C1`, the CC50 was 1.5 µM (active).

In the case of `COc1ccc(CN(CC(=O)c2c(N)n(C)c(=O)n(C)c2=O)[C@@H](C)Cc2cccs2)cc1`, the CC50 is 7.2 µM (active).

With `O=C(Cn1ncc(Cl)c(Cl)c1=O)NCCC1=CCCCC1`, the CC50 is 4.4 µM (active).

Regarding `CN(C)C1CCN(CCNC(=O)Nc2ccc(C3CC3)c(F)c2)CC1`, the CC50 is 4.5 µM (active).

For the molecule `COc1ccc2c(c1)OC(C)(C)CN(C(=O)Nc1nc(C)no1)C2`, the CC50 is 11.9 µM (active).

As for `COc1ccc(-n2ccc(CNc3ncnc(N)c3Cl)n2)cc1`, the CC50 was 3.1 µM (active).

Turning to `CCc1nccn1[C@H]1CCCN(CCOc2ccc(OC)cc2)C1`, the CC50 is 4.1 µM (active).

`CN(C)c1cccc(S(=O)(=O)Nc2ccc3ncccc3c2)c1`: the CC50 is 3.3 µM (active).

As for `O=S(=O)(c1cccs1)N1CCN(C[C@H](O)COc2cc(Cl)ccc2Cl)CC1`, the CC50 was 8.9 µM (active).

For the molecule `O=C(Nc1nc(-c2ccco2)cs1)c1cccnc1N1CCOCC1`, the CC50 was 1.6 µM (active).

With `c1ccc2c(OCCN3CCC(N4CCCCC4)CC3)cccc2c1`, the CC50 was 6.4 µM (active).

Turning to `N#Cc1cnn(C(=O)c2ccc(OCc3ccccc3)cc2)c1N`, the CC50 was 6.1 µM (inactive).

With `Fc1cccc(N2CCCC2)c1CNc1nccc(N[C@H]2CCCOC2)n1`, the CC50 was 6.5 µM (active).

Take `Cc1ccc(CN2CCN(C3CCNC3)CC2)c(Cl)c1Cl` (stereo unspecified): the CC50 is 7.7 µM (active).

`Cc1cc(C)n(C(=O)Cc2cccs2)n1`: the CC50 was 16 µM (inactive).

For the molecule `Cc1cc(C)cc(-n2ncc3c(OCC(=O)N4CCN(C(=O)c5ccco5)CC4)ncnc32)c1`, the CC50 was 3.6 µM (active).

`Cc1cccn2c(CC(=O)N3CCOc4ccc(Cl)cc4C3)cnc12`: the CC50 is 4.9 µM (active).

For `CCOc1cc2ccccc2cc1C(=O)NCc1ccco1`, the CC50 was 1.7 µM (active).

Turning to `COc1ccc(C(=O)Nc2ccc(OC3CCN(C)CC3)cc2)c(OC)n1`, the CC50 was 13.4 µM (active).

For `COc1ccc(C(=O)N2CCCN(CCc3nc4ccccc4n3C)CC2)cc1`, the CC50 was 11.3 µM (inactive).

Regarding `CCOc1ccc(NC(=O)C2CCN(S(=O)(=O)c3ccc4c(c3)OCCCO4)CC2)cc1`, the CC50 was 50 µM (inactive).

For `CCCN1CCC(NC(=O)c2nn(-c3cccc(Cl)c3)nc2C)CC1`, the CC50 was 16.3 µM (inactive).

For the molecule `CNC(=O)c1cc(Oc2ccccc2N)ccn1`, the CC50 is 32.7 µM (inactive).

With `Cc1noc2ncnc(N3CCC(C(=O)N4CCN(c5cccc(Cl)c5)CC4)CC3)c12`, the CC50 is 9.6 µM (active).

Consider `N#Cc1ccc(NC(=O)Cn2c(=O)ccn(Cc3ccccc3)c2=O)cc1`, for which the CC50 is 13.9 µM (inactive).

Consider `COc1ccc2nc(NC(=O)N(C)Cc3nc(C)cs3)sc2c1`, for which the CC50 was 12.7 µM (inactive).

Turning to `CCn1nc(C)cc1C(=O)Nc1nc2cc(C#N)ccc2n1CC`, the CC50 is 4 µM (active).

On to `CC(=O)c1ccc(-c2ccc(C(=O)Nc3ncc(C)o3)o2)cc1`, for which the CC50 was 4.2 µM (active).

Take `O=C(Nc1ccnc2ccnn12)c1cc2ccccc2c(=O)[nH]1`: the CC50 is 0.1 µM (active).

In the case of `Cc1cccc2nc(C(=O)Nc3cccc4cccnc34)cn12`, the CC50 was 0.1 µM (active).

On to `CC(C)(C)NS(=O)(=O)c1ccc(C(=O)Nc2ccc(Oc3cccnc3)nc2)o1`, for which the CC50 was 11.8 µM (inactive).

Take `Cc1occc1-c1cc(NC(=O)N2CCC[C@H]2c2cccn2C)no1`: the CC50 is 1.1 µM (active).

With `Cc1ccc([C@H](C)N(C)C(=O)Nc2cc(C(C)C)n[nH]2)cc1`, the CC50 was 5 µM (active).

For `CC(C)(C)c1nccc(NC(=O)c2ccc(F)c(C#N)c2)n1`, the CC50 is 1.2 µM (active).

In the case of `O=C(NCC(F)(F)CO)c1ccc2noc(-c3ccccc3)c2c1`, the CC50 is 7.2 µM (active).

Take `CCc1nc(C)c([C@H](C)N(C)Cc2cccnc2N)s1`: the CC50 is 13.8 µM (active).

Take `COc1cc(-c2nc(-c3cccs3)no2)cc(OC)c1O`: the CC50 was 0.4 µM (active).

For the molecule `O=C(Nc1ccnn1-c1ccc(Br)cn1)c1ccccn1`, the CC50 is 23.7 µM (inactive).

Turning to `C[C@H]1CN(CC(=O)Nc2nc3ccc(F)cc3s2)CCN1c1nccn2cnnc12`, the CC50 is 8 µM (active).

`Cc1nc(-c2ccccn2)sc1C(=O)Nc1ccccc1O`: the CC50 was 2.8 µM (active).

Take `Cc1cc(NC(=O)CN2CCCC[C@@H]2C)n(C)n1`: the CC50 is 50 µM (inactive).

Regarding `Cc1ccc(NCc2cc(=O)n3c(C)csc3n2)c(F)c1`, the CC50 was 7.2 µM (active).

On to `NCC[C@H](N)C(=O)N1CCC2(CCC(=O)N(Cc3ccccc3)C2)CC1`, for which the CC50 is 11.5 µM (active).

Regarding `c1ccc2c(c1)OC[C@H](CNc1ncnc3sccc13)O2`, the CC50 is 1.8 µM (active).

For `c1cc2c(cc1C1=NN=C(NC3CC3)SC1)OCO2`, the CC50 is 9.1 µM (active).

Take `CCN(CC)C(=O)CN1CCN(S(=O)(=O)c2ccc3c(c2)CCC3)CC1`: the CC50 was 50 µM (inactive).

On to `COc1ccsc1C(=O)Nc1ncc(Cl)s1`, for which the CC50 was 2.3 µM (active).

As for `O=C(Nc1nccs1)c1cccc(S(=O)(=O)N2CCc3ccccc32)c1`, the CC50 was 8.3 µM (active).

For the molecule `Cc1ccccc1N1CCN(C(=O)C2CCN(S(=O)(=O)c3ccc4c(c3)OCCCO4)CC2)CC1`, the CC50 is 1.7 µM (active).

On to `Cc1cc(-c2csc(NC(=O)c3coc(S(=O)(=O)N(C)C)c3)n2)c(C)o1`, for which the CC50 is 16.5 µM (inactive).
